Laboratory results: patent US6982252B2, “Inhibition of vacuolar proton ATPase activity and/or the modulation of acidic organelle function sensitizes cells to radiation, chemotherapy and biological agents” (Memorial Sloan-Kettering Cancer Center, priority 2000, dated 2006)
Several values for one entry are separate records, joined by “and”; a condition that tells them apart may be missing. Equal values may be shown once. Marks after values point to notes of the source that are not given here.

Experiments:
[1] = test system: acidic vesicular organelles (AVO) in MCF-7 cells; assay: Mean red/green fluorescence ratio in acridine orange stained cells by flow cytometry; format: cell-based, human
Protocol: bFGF was added to cultures of MCF-7 cells at 10 ng/ml for 48 hours. TNF was added at 2.3 nM for 48 hours. PMA was added for 1 hour at a concentration of 30 nM, followed by rinsing of the cells and incubation for an additional 48 hours.
Cell staining was performed according to standard techniques (Arvan et al., 1984, J. Bio. Chem. 259:13567-13572; Mains and May, 1988, J. Biol. Chem. 263:7887-7894; Traganos and Darzynkiewicz, Methods in Cell Biology 41:185-194, Academic Press). Acridine orange (Polysciences, Warrington, Pa.) was added to a final concentration of 1 μg/ml for 15 minutes. Bafilomycin A1 (Sigma Chemical Co., St. Louis, Mo.) was dissolved in DMSO and added to the cells 30 minutes prior to the addition of acridine orange. LysoSensor Blue DND-167 (Molecular Probes, Eugene, Oreg.) at a final concentration of 10 μM was added for 8 minutes. Pictures were obtained with a fluorescence microscope (Olympus BH-2 RFCA), equipped with a mercury-100 W lamp, 490 nm band pass blue excitation filters, 500 nm dichroic mirror and a 515 nm long pass barrier filter. Images of control and irradiated cells were recorded on Kodak Elite II 100 ASA film for color slides by 4 seconds exposure.
In acridine orange stained cells the cytoplasm and nucleolus fluoresce bright green and dim red, while acidic compartments fluoresce bright red (Mains and May, 1988, J. Biol. Chem. 263:7887-7894; Traganos and Darzynkiewicz, Methods in Cell Biology Vol. 41, pp. 185-194, Academic Press). The intensity of the red fluorescence is proportional to the degree of acidity and/or the volume of the cellular acidic compartment. Therefore, by comparing the mean red/green fluorescence ratio within different cell populations, a change in the degree of acidity and/or the fractional volume of the cellular acidic compartment could be measured. Cells were stained with acridine orange for […], removed from the plate with trypsin-EDTA and collected in phenol red-free growth medium. Green (510-530 nm) and red (>650 nm) Fluoresence emission from 10,000 cells illuminated with blue (488 nm) excitation light was measured with a FACSCalibur from Becton Dickinson (San Jose, Calif.) using CellQuest software. The red to green fluorescence ratio for individual cells was calculated using FlowJo software (TREE STAR, Inc., San Carlos, Calif.). To control for possible effect of trypsinization on the measured red to green fluorescence ratio, the ratios were compared by flow cytometry with those obtained with a Laser Scanning Microscope (LSM510 from Zeiss). Stained cells, grown on cover glass, were illuminated with a 488 nm argon laser beam. The red (>650 nm) to green (505-545 nm) fluorescence ratio of an entire image was obtained using software LSM 510 version 2.01 SP2. These measurements yielded similar results to those obtained with flow cytometry. All determinations of red to green fluorescence ratio reported in this section were obtained via flow cytometry.

[2] = test system: LoVo (human colon adenocarcinoma); assay: Clonogenic survival (surviving fraction) of LoVo cells after radiation or chemotherapeutic agent; format: cell-based
Protocol: (§1) MCF-7 (human breast adenocarcinoma), LoVo (human colon adenocarcinoma) and LNCaP (human prostate carcinoma) were obtained from the American Type Culture Collection. Cells were maintained as described in Paglin et al., 1997, Biochem. Biophs. Res. Comm. 237:678-684). Irradiation was carried out 48 hours post-plating (T0) at room temperature using a Cs-137 irradiator (Sheperd Mark-I, model 68, SN643) at a dose rate of 2.43-2.32 Gy/min. Bovine aortic endothelial cells were grown and treated with H2O2 as described in Haimovitz-Friedman et al., 1994, J. Exp. Med. 180:525-535 and Verhij et al., 1996, Nature 380:75-79. Phorbol 12-myristate 13-acetate (PMA; Alexis Biochemicals Corp., San Diego, Calif.) was dissolved in dimethyl sulfoxide (DMSO) and added to cells for the duration of one hour. The final DMSO concentration was 0.03%. The cells were then rinsed with warm growth medium before being returned to the incubator for an additional 48 hours.
(§2) Cells were plated in growth medium at a density of 30-90 cells per square centimeter and irradiated 22 hours later. Each experimental condition was done in quintet or triplicate. Cells were irradiated at room temperature in Cs-137 Irradiator (Sheperd Mark-I, Model 68, SN 643) at a rate of 2.43-2.32 Gy/min. […] For determination of their red to green ratio, colonies were processed as described above. For determination of surviving fractions cells were stained with crystal violet and colonies containing 50 cells or more were counted with a dissecting microscope. The surviving fraction was defined as the ratio between the plating efficiencies of irradiated and non-irradiated cells and was calculated at each dose level according to Hall and Phill (1994, […] for the Radiologist, 4th Edition, J. Lippincott Co., Philadelphia).

[3] = test system: MCF-7 (human breast adenocarcinoma); assay: Clonogenic survival (surviving fraction) of MCF-7 cells after radiation or chemotherapeutic agent; format: cell-based; conditions: for Surviving Fraction 100 nM Adriamycin / Surviving Fraction: Table 16
Protocol: as §1, §2

[4] = test system: MCF-7 (human breast adenocarcinoma); assay: as above; format: cell-based
[5] = test system: AVO in MCF-7 cells; assay: Vital staining with acridine orange, fluorescence microscopy; format: cell-based, human; conditions: pre-incubation with 300 μM chloroquine
Protocol: Acridine orange (Polysciences, Warrington, Pa.) was added to a final concentration of 1 μg/ml for 15 minutes. […] Pictures were obtained with a fluorescence microscope (Olympus BH-2 RFCA), equipped with a mercury-100 W lamp, 490 nm band pass blue excitation filters, 500 nm dichroic mirror and a 515 nm long pass barrier filter. Images of control and irradiated cells were recorded on Kodak Elite II 100 ASA film for color slides by 4 seconds exposure.

[6] = test system: AVO-EM in irradiated MCF-7 cells; assay: Electron microscopy of AVO-EM; format: cell-based, human; conditions: 3-methyladenine 5 mM; 10 Gy; without it 94%
Protocol: Cell processing for electron microscopy and staining with N-(3-(2,4-dinitrophenyl)-N-(3-aminopropyl))methylamine dihydrochloride (DAMP; Molecular Probes, Eugene, Oreg.) was performed as set forth in Anderson et al., 1984, Proc. Natl. Acad. Sci. U.S.A. 81:4838-4842 and Dunn et al., 1990, J. Cell Biol. 110:1935-1945. The fraction of the cytoplasmic volume occupied by AVO (fractional volume of AVO) was quantified from electron micrographs according to Dunn and Lenk et al., (Dunn et al., 1990, J. Cell Biol. 110:1935-1945; Lenk et al., 1992, J. Cell Biol. 118:301-308). Digital Images of the micrographs were obtained using an Epson ES-1200S flat bed scanner with Adobe Photoshop version 5. The fractional volume was calculated with Image Pro Plus Version 3 and expressed as a percentage of the total cytoplasmic volume.

Molecule: CO[C@H]1C[C@@H]2CC[C@@H](C)[C@@](O)(O2)C(=O)C(=O)N2CCCC[C@H]2C(=O)O[C@H]([C@H](C)C[C@@H]2CC[C@@H](O)[C@H](OC)C2)CC(=O)[C@H](C)/C=C(\C)[C@@H](O)[C@@H](OC)C(=O)[C@H](C)C[C@H](C)/C=C/C=C/C=C/1C [Rapamycin, rapamycin]
- Fold Increase in Red:Green 48 hrs ([1]; Table 21, MCF-7, 20 nM rapamycin): 1.96 fold
- Fold Increase in Red:Green 48 hrs ([1]; Table 21, MCF-7, 50 nM rapamycin): 2.31 fold
- Fold Increase in Red:Green 24 hrs ([1]; Table 22, Rapamycin 10 nM): 1.7 fold
- Fold Increase in Red:Green 48 hrs ([1]; Table 22, Rapamycin 10 nM): 1.6 fold
- Fold Increase in Red:Green 24 hrs ([1]; Table 22, Rapamycin 20 nM): 1.7 fold
- Fold Increase in Red:Green 48 hrs ([1]; Table 22, Rapamycin 20 nM): 1.4 fold

Molecule: CCCCCCCCCCCCCC(=O)O[C@@H]1[C@@H](C)[C@@]2(O)[C@@H](C=C(CO)C[C@]3(O)C(=O)C(C)=C[C@@H]23)[C@@H]2C(C)(C)[C@]12OC(C)=O [PMA, Phorbol 12-myristate 13-acetate]
- Fold Increase in Red: Green ([1]; MCF-7, PMA 30 nM for 1 hour, rinsed, additional 48 hours): 1.7±0.3 fold and 1.7 ± 0.3 (n = 3) fold

Molecule: C[C@]12CC[C@@H]3c4ccc(O)cc4CC[C@H]3[C@@H]1CC[C@@H]2O [Estradiol]
- Fold increase of Red:Green ([1]; Estradiol 10^−9 M alone): 1 fold
- inhibition of the effect of tamoxifen on appearance of acidic vesicular organelles ([1]; estradiol 10^−9 M with tamoxifen, Table 23): 50%

Molecule: COc1cccc2c1C(=O)c1c(O)c3c(c(O)c1C2=O)C[C@@](O)(C(=O)CO)C[C@@H]3O[C@H]1C[C@H](N)[C@H](O)[C@H](C)O1 [Adriamycin]
- Surviving Fraction Without Bafilomycin ([2]; Adriamycin 50 nM alone): 0.84 ± 0.01
- Surviving Fraction Without Bafilomycin ([2]; Adriamycin 100 nM alone): 0.77 ± 0.01
- Surviving Fraction Without Bafilomycin ([2]; Adriamycin 150 nM alone): 0.47 ± 0.02
- survival, Adriamycin 100 nM ([2]; Table 17, Adriamycin 100 nM alone, 48 hours): 0.94 ± 0.1
- Surviving Fraction 100 nM Adriamycin ([3]; MCF-7, 100 nM Adriamycin alone (Salicilyhalamide 0 nM)): 0.88 ± 0.08
- survival, column Adriamycin ([4]; Table 15, 100 nM adriamycin alone (Bafilomycin 0 nM)): 0.88 ± 0.08

Molecule: CC/C(=C(\c1ccccc1)c1ccc(OCCN(C)C)cc1)c1ccccc1 [Tamoxifen]
- Fold increase of Red:Green ([1]; Tamoxifen 2 × 10^−6 M): 1.6 fold
- Fold increase of Red:Green ([1]; Tamoxifen 2 × 10^−6 M + Estradiol 10^−9 M): 1.33 fold
- Fold increase of Red:Green ([1]; Tamoxifen 10^−6 M): 1.5 fold
- Fold increase of Red:Green ([1]; Tamoxifen 10^−6 M + Estradiol 10^−9 M): 1.25 fold

Molecule: z-VAD-fmk
- mean red to green fluorescence ratio ([1]; z-VAD-fmk 50 μM added 1 hour before irradiation, 10 Gy, 24 hours following irradiation): 2.5 ± 0.04
- mean red to green fluorescence ratio ([1]; z-VAD-fmk 50 μM added 1 hour before, unirradiated, 24 hours): 1.4 ± 0.07

Molecule: CCN(CC)CCCC(C)Nc1ccnc2cc(Cl)ccc12 (stereo not drawn) [chloroquine]
- acridine orange accumulation in the AVO [5]: inhibited acridine orange accumulation

Molecule: bFGF: cytokine tested as inducer of acidic organelle formation
- Fold Increase in Red: Green ([1]; MCF-7, bFGF 10 ng/ml for 48 hours): 2.23 ± 0.18 (n = 3) fold

Molecule: COc1cc([C@@H]2c3cc4c(cc3[C@@H](O[C@@H]3O[C@@H]5CO[C@@H](C)O[C@H]5[C@H](O)[C@H]3O)[C@H]3COC(=O)[C@H]23)OCO4)cc(OC)c1O [Etoposide]
- cell survival (head of column empty) ([2]; Table 19, Etoposide 0.05 μg/ml alone): 0.78 ± 0.05
- cell survival (head of column empty) ([3]; Table 18, MCF-7, Etoposide 0.05 μg/ml alone): (0.79; 0.77) 0.78*

Molecule: CC/C=C\C=C/C(=O)N/C=C/C[C@H]1C[C@@H](O)[C@@H](C)C/C=C/Cc2cccc(O)c2C(=O)O1 [Salicylihalamide A]
- decrease of survival of irradiated cells ([3]; 25 nM salicylihalamide A, 3 Gy): 30%
- Surviving Fraction 0 Gy ([3]; Salicylihalamide A 12.5 nM): 1.14 ± 0.07
- Surviving Fraction 3 Gy ([3]; Salicylihalamide A 12.5 nM, 3 Gy): 0.38 ± 0.03
- Surviving Fraction 0 Gy ([3]; Salicylihalamide A 25 nM): 0.92 ± 0.08
- Surviving Fraction 0 Gy ([3]; Salicylihalamide A 25 nM, listed as salicylihalamide A): did not significantly affect
- Surviving Fraction 3 Gy ([3]; Salicylihalamide A 25 nM, 3 Gy): 0.32 ± 0.03
- Surviving Fraction 0 Gy ([3]; Salicylihalamide A 50 nM): 0.72 ± 0.09
- Surviving Fraction 3 Gy ([3]; Salicylihalamide A 50 nM, 3 Gy): 0.22 ± 0.04
- Surviving Fraction 0 Gy ([3]; Salicylihalamide A 100 nM): 0.53 ± 0.03
- Surviving Fraction 3 Gy ([3]; Salicylihalamide A 100 nM, 3 Gy): 0.11 ± 0.02
- Surviving Fraction 100 nM Adriamycin ([3]; MCF-7, Salicilyhalamide 25 nM + 100 nM Adriamycin): 0.79 ± 0.05
- Surviving Fraction ([3]; MCF-7, Salicilyhalamide 25 nM alone): 1.03 ± 0.03
- Surviving Fraction 100 nM Adriamycin ([3]; MCF-7, Salicilyhalamide 50 nM + 100 nM Adriamycin): 0.66 ± 0.04
- Surviving Fraction ([3]; MCF-7, Salicilyhalamide 50 nM alone, listed as Salicilyhalamide): 0.95 ± 0.01
- Surviving Fraction ([3]; MCF-7, Salicilyhalamide 50 nM alone, listed as salicylihalamide A): minimal effect
- Surviving Fraction 100 nM Adriamycin ([3]; MCF-7, Salicilyhalamide 100 nM + 100 nM Adriamycin): 0.57 ± 0.01
- Surviving Fraction ([3]; MCF-7, Salicilyhalamide 100 nM alone): 0.78 ± 0.04
- decrease of survival ([4]; 50 nM salicylihalamide A in combination with 100 nM Adriamycin): 25%

Molecule: Cn1cnc(N)c2ncnc1-2 [3-methyladenine]
- fraction of cells containing AVO-EM [6]: 22%
- red to green ratio ([1]; 3-methyladenine 5 mM, 48 hours following radiation with 10 Gy, without it 1.77±0.01, n=3): 1.15±0.01
